# Reference: publication PMC4894409 (Scientific Reports, 2015)
# Key:
# [1] = test system: mice; test: Open field (OF) test; format: in vivo, Male Swiss mice
# Experimental: Male Swiss mice (weighing between 25–30 g; 6–8 weeks old), provided by Central Animal House of the Federal University of Goiás, were used in all behavioural models. The experimental animals were kept in an intra-laboratory facility cage (32 × 18 × 16 cm) under controlled environmental conditions (23 ± 1 °C, 12 hr light-dark cycle) with access to food and water ad libitum. The experimental protocols (number 104/08) were approved by Ethical Committee of Federal University of Goiás in accordance to the international laws on the care and use of laboratory animals.
# In the OF, animals were randomly divided into six groups [control (vehicle), 3 different doses of OAD, DZP 1 or 5 mg/kg]. Animals were treated with vehicle, OAD (5, 10 or 20 mg/kg, p.o), DZP (1 or 5 mg/kg, p.o) as described in our previous work[7][49], and placed in a circular open field [base area ( [drawing 2] ) = 62.80 cm^2 which is divided into 8 equal sectors enclosed in a 50 cm high wooden wall]. The test session (5-min duration) was videotaped in a sound-proof experimental room. Parameters like total crossing, freezing time, number of grooming and rearing activity, crossing at the centre and time spent at the centre of the open field were observed and scored.
# [2] = target: T1, 5-HT1A receptor (Mus musculus, UniProt Q64264); test: [35S]GTPγS binding to mice hippocampal membranes; format: biochemical
# T1 construct: The hippocampi of mice were dissected and homogenized in 5 volumes of ice-cold buffer; from tissue; host or cells: mouse hippocampus membranes
# T1 sequence (Q64264 1-421): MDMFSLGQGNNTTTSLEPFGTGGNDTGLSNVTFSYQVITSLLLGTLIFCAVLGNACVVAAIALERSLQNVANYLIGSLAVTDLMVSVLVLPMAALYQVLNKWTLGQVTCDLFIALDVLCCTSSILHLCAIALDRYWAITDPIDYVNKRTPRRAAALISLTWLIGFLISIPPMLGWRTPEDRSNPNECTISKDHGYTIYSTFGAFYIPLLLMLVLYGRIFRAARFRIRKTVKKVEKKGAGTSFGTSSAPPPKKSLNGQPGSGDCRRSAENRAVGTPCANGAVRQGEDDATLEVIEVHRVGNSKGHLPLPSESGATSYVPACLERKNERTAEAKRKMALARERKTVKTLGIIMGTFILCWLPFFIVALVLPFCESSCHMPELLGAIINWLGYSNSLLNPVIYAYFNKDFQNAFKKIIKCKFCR
# Experimental: The hippocampi of mice were dissected and homogenized in 5 volumes of ice-cold buffer (25 mM Tris-HCl, 0.5 mM dithiothreitol, and 0.5 mM EGTA, pH 7.4). The homogenate was centrifuged (1,000 × g for 5 min at 4 °C) and the resultant supernatant was removed. The remaining pellet was resuspended in buffer, homogenized, and centrifuged. The two supernatants obtained were combined and centrifuged at […] at 4 °C and the pellets were resuspended in membrane preparation buffer. The volumes were adjusted prior to the determination of protein concentration by Bradford method[56] and stored at −80 °C until required. […] The reactions were initiated by the addition of 25 μl [^35S]-GTPγS, followed by a 20 min incubation at 20 °C. The reactions were terminated by rapid filtration. The filters were placed in liquid scintillation cocktail in counting vials. The liquid scintillation spectroscopy was used to measure the radioactivity bound to the filter paper after 10 hour.
smiles,measurement,setting,value
"C=CC(=O)O[C@H]1CC[C@]2(C)[C@H]3CC=C4[C@@H]5CC(C)(C)CC[C@]5(C(=O)O)CC[C@@]4(C)[C@]3(C)CC[C@H]2C1(C)C [D1, Oleanolic acid acrylate]",crossing at the centre of the OF,"[1]; 10 mg/kg p.o., vs vehicle",increase
same,freezing time in the OF,"[1]; 20 mg/kg p.o., vs vehicle",increase
same,other parameters of the OF test,"[1]; 5, 10, 20 mg/kg p.o., parameters not named as changed, p > 0.05",not altered
same,time spent at the centre of the OF,"[1]; 10 and 20 mg/kg p.o., vs vehicle",increase
same,EC50,"[2]; mice hippocampal membranes, read-out: Agonist potency (pEC50 ± SEM) (converted)",794 nM
same,Emax,"[2]; percentage of that produced by 10 μM (+)8-OH-DPAT, read-out: Intrinsic activity (Emax ± SEM in %)",26 ± 2%
